Assay results reported in patent US11926645B2, “Compounds and methods for treatment of viral infections” (priority 2020, dated 2024).
Like-named read-outs stand apart in the source and are kept apart here.

Experiments:
CES2 = biological target: T1, CES2 (Homo sapiens, UniProt O00748); assay: CES1/2 stability, CES2; assay type: in vitro ADME; settings: CES2 Supersome preparation; Supersome preparations, CES 1.5 mg/ml, 2 μM substrate, pH 7.4, 37° C.; read-out: CES2 T1/2
T1 construct: purchased
T1 sequence (O00748 27-559): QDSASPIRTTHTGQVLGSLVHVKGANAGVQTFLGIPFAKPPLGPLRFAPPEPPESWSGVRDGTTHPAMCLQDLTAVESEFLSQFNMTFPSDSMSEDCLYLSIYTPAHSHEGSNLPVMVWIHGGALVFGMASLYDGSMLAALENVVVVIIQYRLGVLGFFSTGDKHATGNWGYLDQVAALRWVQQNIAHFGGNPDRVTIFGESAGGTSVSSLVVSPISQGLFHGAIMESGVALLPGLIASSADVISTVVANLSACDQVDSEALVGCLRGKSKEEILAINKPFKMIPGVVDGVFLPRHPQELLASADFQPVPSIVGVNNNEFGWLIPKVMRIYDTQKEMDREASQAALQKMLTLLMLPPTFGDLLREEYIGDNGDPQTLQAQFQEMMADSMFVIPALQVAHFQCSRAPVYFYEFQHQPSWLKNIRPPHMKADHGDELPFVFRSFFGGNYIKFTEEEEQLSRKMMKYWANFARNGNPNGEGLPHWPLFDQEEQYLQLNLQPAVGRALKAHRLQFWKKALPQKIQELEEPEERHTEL
Experimental: (§1) Test compounds or positive control substrates (oseltamivir for CES1 enzymes or procaine for CES2) were incubated with individual Supersome preparations (final CES concentration 1.5 mg/ml) in 0.1 M potassium phosphate buffer (pH 7.4) at 37° C. Substrates were added to a final concentration of 2 μM to initiate the reaction. The final incubation volume was 250 μL. Aliquots were removed after incubation for 0, 10, 30, 60 and 120 min. The reactions were stopped by the addition of IS/Q. Following protein precipitation and centrifugation, 150 μL of supernatant was diluted with an equal volume of water prior to LC-MS analysis. For procaine 150 μL of supernatant was dried down and reconstituted with 250 μL water. All samples were analyzed by LC-MS and the PAR values were used for quantification.

SARS-CoV-2-Nluc viruses = assay: microbe, parasite or virus in culture; assay type: cell-based
in vitro [1] = assay type: in vitro ADME; settings: s9, pH 7.4
Experimental: (§2) Duplicate aliquots of test compound or positive control substrate (GS-7340) were added to S9 stock diluted with 100 mM potassium phosphate buffer, pH 7.4, to obtain a protein concentration of 2.4 mg/mL. The S9 metabolic reactions were initiated by the addition of the substrates to the S9 reaction mixture to a final concentration of 2 μM. At 2, 12, 25, 45, 65 and 90 min, 25 μL aliquots of the reaction mixture were transferred to plates containing 225 μl of IS/Q solution. After quenching, the plates were centrifuged at 3000×g for 30 minutes, and 150 μl, aliquots of each supernatant were diluted with 150 μl, water. Aliquots (10 μL) of the diluted supernatant were analyzed on a Thermo Q-Exactive mass spectrometer as described below.
(§3) Quantification of test compounds and controls was performed by analyte/internal standard peak area ratio (PAR) values measured on a Thermo Q-Exactive mass spectrometer coupled to a Dionex UltiMate 3000 HPLC with a Leap Technologies HTC PAL autosampler. The column used was a Thermo Hypersil GOLD (1.9 μm particle size, 2.1×50 mm). Mobile phase A consisted of 0.1% (v/v) formic acid in water. Mobile phase B consisted of 0.1% (v/v) formic acid in acetonitrile. Elution of analytes was achieved by a series of linear gradients of acetonitrile in water containing 0.1% (v/v) formic acid. The mass spectrometer was calibrated on a weekly basis and mass tolerance of 5 ppm was used.

SARS-CoV-2 = test system: SARS-CoV-2; parameters: species or system ferrets; settings: in vivo, po
[2] = test system: RSV-Fluc (Respiratory Syncytial virus strain A2 containing the firefly luciferase reporter); assay: microbe, parasite or virus in culture; assay type: cell-based; settings: human respiratory syncytial virus, 72 h, NHBE cells, three days
in vitro [3] = assay type: in vitro ADME, Human; settings: for half-life at 2 μM: human, s9, pH 7.4
Experimental: as §2, with “mM” for “mM potassium”, “buffered saline,” for “buffer,”, “1.0” for “2.4”, “0, 10, 20, 30, 60” for “2, 12, 25, 45, 65”, “120” for “90”, “μL” for “μl,”
as §3

in vitro [4] = assay type: cell-based; settings: human
Experimental: The cytotoxicity of compounds was determined in A549-hACE2 cells in the following manner. Compounds (200 nL) were spotted onto 384-well Grenier plates prior to seeding 5000 A549-hACE2 cells/well in a volume of 40 μL culture medium. The plates were incubated at 37° C. for 48 hours with 5% CO2. On day 2, 40 μL of CellTiter-Glo (Promega) was added and mixed 5 times.

Plasma stability = settings: human
CES1 = biological target: T2, CES1 (Homo sapiens, UniProt P23141); assay: CES1/2 stability, CES1; assay type: in vitro ADME; settings: CES1 Supersome preparation; Supersome preparations, CES 1.5 mg/ml, 2 μM substrate, pH 7.4, 37° C.; read-out: CES1 T1/2
T2 construct: purchased
T2 sequence (P23141 18-567): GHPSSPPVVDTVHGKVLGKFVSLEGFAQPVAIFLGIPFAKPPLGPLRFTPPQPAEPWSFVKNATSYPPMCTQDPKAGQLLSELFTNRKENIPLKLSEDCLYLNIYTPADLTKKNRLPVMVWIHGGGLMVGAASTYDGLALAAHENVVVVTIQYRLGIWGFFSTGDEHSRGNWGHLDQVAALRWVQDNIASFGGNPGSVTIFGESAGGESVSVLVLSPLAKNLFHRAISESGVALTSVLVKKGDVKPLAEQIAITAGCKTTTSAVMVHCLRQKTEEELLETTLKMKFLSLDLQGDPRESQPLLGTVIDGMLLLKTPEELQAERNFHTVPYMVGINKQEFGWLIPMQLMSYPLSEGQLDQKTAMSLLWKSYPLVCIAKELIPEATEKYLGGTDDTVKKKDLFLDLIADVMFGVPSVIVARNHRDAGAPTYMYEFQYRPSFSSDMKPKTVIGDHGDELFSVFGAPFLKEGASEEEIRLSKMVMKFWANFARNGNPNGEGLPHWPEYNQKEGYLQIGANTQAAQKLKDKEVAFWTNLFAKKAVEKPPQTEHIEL
Experimental: as §1

RSV strain A2 = assay: RSV antiviral assay (Hep2), EC50-Hep2/B1-384; assay type: cell-based; settings: human respiratory syncytial virus, HEp-2, 96 h; Hep2 cells, 4 days, Cell-Titer Glo
[5] = male, Sprague-Dawley, rat, in vivo, po, 6 mg/kg
[6] = test system: SARS-CoV-2 2019-nCoV/USA-WA1/2020; assay type: in vivo; settings: in vivo
[7] = assay type: in vivo, Sprague-Dawley rats
Experimental: β-d-N^4-hydroxycytidine (NHC) was dosed orally by gavage to male Sprague-Dawley rats (n=3) at 10 mg/kg in 3.9% citric acid and 96.1% water, pH 2.8; Molnupiravir at 12.7 mg/kg in 2.5% kolliphor RH 40, 10% polyethylene glycol 300 and 87.5% water, pH 5.3. […]

in vitro [8] = settings: hamster
in vitro [9] = settings: human, PrestoBlue
in vitro [10] = settings: African green monkey
[11] = male, Sprague-Dawley, rat, in vivo, po, 12.7 mg/kg

Which half-life at 2 μM (CES2) does the source give for CC(C)C(=O)OC[C@H]1O[C@@](C#N)(c2ccc3c(N)ncnn23)[C@H](O)[C@@H]1O [Compound 15, ((2R,3S,4R,5R)-5-(4-aminopyrrolo[2,1-f][1,2,4]triazin-7-yl)-5-cyano-3,4-dihydroxytetrahydrofuran-2-yl)methyl isobutyrate] here?
Its half-life at 2 μM is less than 1 min.

And the EC50 (SARS-CoV-2-Nluc viruses; Severe acute respiratory syndrome coronavirus 2, 48 h, read-out: SARS-CoV2 EC50)?
Its EC50 is 1.03 µM.

What about the half-life at 2 μM (in vitro [1]) of the same compound?
Its half-life at 2 μM is 1.2 min.

What about the “Change from vehicle, nasal lavage AUC(0-96) PFU/mL” value (SARS-CoV-2; 5 mg/kg) of the same compound?
The value was −2.21 log10.

And the “Change from vehicle, nasal lavage AUC(0-96) RNA copies/μL” value (SARS-CoV-2; 5 mg/kg)?
The value was −1.33 log10.

And the “Change from vehicle, nasal turbinate terminal PFU/mL” value (SARS-CoV-2; 5 mg/kg)?
The value was −1.68 log10.

And the “Change from vehicle, nasal turbinate terminal RNA copies/μL” value (SARS-CoV-2; 5 mg/kg)?
The value was −2.14 log10.

And the “Change from vehicle, nasal lavage AUC(0-96) PFU/mL” value (SARS-CoV-2; 10 mg/kg)?
The value was −2.50 log10.

And the “Change from vehicle, nasal lavage AUC(0-96) RNA copies/μL” value (SARS-CoV-2; 10 mg/kg)?
Its value is −1.51 log10.

And the “Change from vehicle, nasal turbinate terminal PFU/mL” value (SARS-CoV-2; 10 mg/kg)?
The value was −2.20 log10.

And the “Change from vehicle, nasal turbinate terminal RNA copies/μL” value (SARS-CoV-2; 10 mg/kg)?
Its value is −1.79 log10.

What about the “Change from vehicle, nasal lavage AUC(0-96) PFU/mL” value (SARS-CoV-2; 40 mg/kg) of the same compound?
The value was −2.80 log10.

And the “Change from vehicle, nasal lavage AUC(0-96) RNA copies/μL” value (SARS-CoV-2; 40 mg/kg)?
The value was −1.91 log10.

And the “Change from vehicle, nasal turbinate terminal PFU/mL” value (SARS-CoV-2; 40 mg/kg)?
Its value is −3.79 log10.

And the “Change from vehicle, nasal turbinate terminal RNA copies/μL” value (SARS-CoV-2; 40 mg/kg)?
Its value is −4.01 log10.

What about the EC50 [2] of the same compound?
The EC50 was 0.588 µM.

What about the half-life at 2 μM (in vitro [3]) of the same compound?
The half-life at 2 μM was 69 min.

What about the CC50 at 48 h (in vitro [4]) of the same compound?
Its CC50 at 48 h is greater than 50 µM.

What about the half-life at 2 μM (Plasma stability) of the same compound?
The half-life at 2 μM was 29 min.

And the half-life at 2 μM (CES1)?
Its half-life at 2 μM is 6 min.

And the EC50 (RSV strain A2)?
The EC50 was 0.407 µM.

What about the Cmax [5] of the same compound?
The Cmax was 2.1 µM.

With CC(C)C(=O)OC[C@H]1O[C@@H](n2ccc(NO)nc2=O)[C@H](O)[C@@H]1O [Molnupiravir, reference compound] as the compound, how does the half-life at 2 μM (CES2) read?
Its half-life at 2 μM is 9.8 min.

And the “Clinical signs versus vehicle animals” value [6]?
Its value is “No significant differences in clinical signs”.

And the “Shed virus load (nasal lavages) versus vehicle” value [6]?
The value was “lower in all treated animals than in the vehicle group”.

And the “Viral RNA copies in nasal lavages and turbinates versus vehicle” value [6]?
Its value is “statistically significant mean reduction”.

And the “Virus burden in the turbinates” value [6]?
The value was “reduced burden in the turbinates”.

And the “Change from vehicle, nasal lavage AUC(0-96) PFU/mL” value (SARS-CoV-2; 5 mg/kg)?
The value was −2.34 log10.

What about the “Change from vehicle, nasal lavage AUC(0-96) RNA copies/μL” value (SARS-CoV-2; 5 mg/kg) of the same compound?
Its value is −0.87 log10.

What about the “Change from vehicle, nasal turbinate terminal PFU/mL” value (SARS-CoV-2; 5 mg/kg) of the same compound?
Its value is −3.79 log10.

And the “Change from vehicle, nasal turbinate terminal RNA copies/μL” value (SARS-CoV-2; 5 mg/kg)?
The value was −2.68 log10.

And the half-life at 2 μM (in vitro [3])?
The half-life at 2 μM was greater than 700 min.

What about the half-life at 2 μM (Plasma stability) of the same compound?
Its half-life at 2 μM is 51 min.

What about the half-life at 2 μM (CES1) of the same compound?
Its half-life at 2 μM is 30 to 51 min.

What about the Cmax [7, 11] of the same compound?
The Cmax was 4.09 µM.

And the “NHC AUCinf.” value [7, 11]?
The value was 8.96 µM·h.

And the “NHC F % (based on NHC mg-eq dose)” value [7, 11]?
The value was 39.1%.

What about the “NHC F % (based on molnupiravir dose)” value [7, 11] of the same compound?
The value was 30.8%.

For O=c1nc(NO)ccn1[C@@H]1O[C@H](CO)[C@@H](O)[C@H]1O [NHC, β-d-N^4-hydroxycytidine], which “Human GI S9 T1/2” value (in vitro [3]; 2 μM substrate, 1.0 mg/mL protein, pH 7.4) is on record?
The value was greater than 700 min.

What about the “NHC AUCinf.” value ([7]; male Sprague-Dawley rats, plasma, oral NHC 10 mg/kg) of the same compound?
The value was 8.48 µM·h.

And the Cmax ([7]; male Sprague-Dawley rats, plasma, oral NHC 10 mg/kg, read-out: NHC Cmax)?
The Cmax was 3.13 µM.

And the “NHC F % (based on NHC mg-eq dose)” value ([7]; male Sprague-Dawley rats, oral NHC 10 mg/kg)?
Its value is 37.0%.

What does the source list for CCC(CC)COC(=O)[C@H](C)N[P@](=O)(OC[C@H]1O[C@@](C#N)(c2ccc3c(N)ncnn23)[C@H](O)[C@@H]1O)Oc1ccccc1 [Remdesivir]?
EC50 (SARS-CoV-2-Nluc viruses; Severe acute respiratory syndrome coronavirus 2, host cells A549-ACE2, read-out: EC50, WA1/2020-nano luciferase): 0.067 µM; CC50 (in vitro [8]): > 100 µM; CC50 (in vitro [4]; host cells A549-ACE2, read-out: CC50, A549-ACE2): > 16.7 µM; CC50 (in vitro [9]; CC50, DF2 HAE, primary diseased (asthma) HAE donor DF2, 72 hours): > 33 µM; CC50 (in vitro [9]; CC50, M2 HAE, primary HAE donor M2, 72 hours): 102 µM; CC50 (in vitro [9]; CC50, M6 HAE, primary HAE donor M6, 72 hours): > 100 µM; CC50 (in vitro [10]): > 100 µM
